Assay results: patent US20230227406A1, “MODULATORS OF E3 LIGASES” (Rekindle Therapeutics Inc., priority 2020, published 2023)

What was measured:
DU-145 cells = experiment: Cellular proliferation assay (MTS) in DU-145 cells; type: cell-based; details: Homo sapiens, 72 hours of incubation, read-out: IC50 values for selected compounds in DU-145 cells
Experimental: DU-145 cells were trypsinized, counted via Trypan blue method and resuspended in DMEM complete medium (10% FBS with Pen-strep antibiotics) as described in Lieu et al, Mol Cel Endorinol, 87:19-28, 1992. Cells were seeded at a density of 100 cells per well in 1001 volume of 96-well cell culture plate and were incubated overnight at 37° C. in 5% CO2 incubator. The next day, cells were given fresh media and the test compounds were added in different concentrations. After 72 hours of incubation, MTS reagent (procured from Promega) was added to the cells and they were incubated for an additional 2 hours. Finally, the plates read in the absorbance mode at 490 nm using an ELISA plate reader (Perkin Elmer Victor X3 plate reader). The % growth values were calculated as [(T−T0)/(C−T0)]×100, where T0 is the OD of cells at the time of compound addition, C is the vehicle control, T is the OD of the test concentrations at 72 hours. Percentage inhibition values were calculated using 100−([(T−T0)/(C−T0)]×100). IC50 values were calculated in graph pad prism software using dose response curve nonlinear regression method.

[1] = test system: phosphorylated AKT and phosphorylated Ribosomal Protein S6; experiment: Western blot of AKT and S6 phosphorylation in Hs578T cells; type: cell-based, human; details: 48 hours, indicated concentrations
Experimental: Hs578T cells (human triple negative breast cancer) were treated with the indicated concentration of COMPOUND 1 for 48 hours prior to harvesting. The “0” concentration is DMSO only (0.5%, same as was used for compound doses). […] Analysis occurred via western blot using the indicated antibodies. Quantification by densitometry of the bands from the western blot are presented for phosphorylated AKT/Total AKT and phosphorylated Ribosomal Protein S6/Total Ribosomal Protein S6. COMPOUND 1 reduced both AKT and S6 phosphorylation relative to their respective total protein levels.
The data presented here are consistent with the previous replicate in Hs578T cells, and the observation is preserved in another TNBC cell line, BT-20. COMPOUND 1 reduces the phospho-AKT/vinculin loading control and phospho-S6/total S6 ratios. Methods are the same as the previous replicate, using the indicated doses.
Hs578T cells (human triple negative breast cancer) were treated with the indicated concentration of COMPOUND 6 for 48 hours prior to harvesting. The “0” concentration is DMSO only (0.5%, same as was used for compound doses). […] Analysis occurred via western blot using the indicated antibodies.
The data presented here are consistent with the previous replicate in Hs578T cells. COMPOUND 6 reduces the phospho-AKT/vinculin loading control and phospho-S6/total S6 ratios. Methods are the same as the previous replicate, using the indicated doses.
Hs578T cells (human triple negative breast cancer) were treated with the indicated concentration of COMPOUND 7 for 48 hours before harvesting. The “0” concentration is DMSO only (0.5%, same as was used for compound doses). […] Analysis occurred via western blot using the indicated antibodies.
The data presented here are consistent with the previous replicate in Hs578T cells. COMPOUND 7 reduces the phospho-S6/vinculin loading control ratio. Methods are the same as the previous replicate, using the indicated doses.
(§1) Hs578T cells (human triple negative breast cancer) were treated with the indicated concentration of COMPOUND 8 for 48 hours and then harvested. The “0” concentration is DMSO only (0.5%, same as was used for compound doses). […] Analysis occurred via western blot using the indicated antibodies.

PD-L1 = experiment: Western blot of PD-L1 in Hs578T cells; type: cell-based, human; details: 48 hours, indicated concentrations of compound
Experimental: Hs578T cells (human triple negative breast cancer) were treated with the indicated concentration of COMPOUND 1 for 48 hours prior to harvesting. The “0” concentration is DMSO only (0.5%, same as was used for compound doses). […] Analysis occurred via western blot using the indicated antibodies. Quantification by densitometry of the bands from the western blot are presented for PD-L1/Vinculin (loading control) in the absence of interferon gamma, and glycosylated/non-glycosylated PD-L1 in the presence of interferon gamma.
The data presented here are consistent with the previous replicate in Hs578T cells, and the observation is preserved in another TNBC cell line, BT-20. COMPOUND 1 increases PD-L1 levels and the glycosylated PD-L1/non-glycosylated PD-L1 ratio. Methods are the same as the previous replicate, using the indicated doses.
Hs578T cells (human triple negative breast cancer) were treated with the indicated concentration of COMPOUND 6 for 48 hours before harvesting. The “0” concentration is DMSO only (0.5%, same as was used for compound doses). […] Analysis occurred via western blot using the indicated antibodies. PD-L1 protein levels were reduced relative to the vinculin loading control upon compound treatment. This effect is observed in the presence and absence of interferon gamma (IFN, 25 ng/mL in cell culture media during the drug treatment).
Hs578T cells (human triple negative breast cancer) were treated with the indicated concentration of COMPOUND 7 for 48 hours prior to harvesting. The “0” concentration is DMSO only (0.5%, same as was used for compound doses). […] Analysis occurred via western blot using the indicated antibodies. PD-L1 protein levels were reduced relative to the vinculin loading control upon 319-02 treatment.
The data presented here are consistent with the previous replicate in Hs578T cells. COMPOUND 7 reduces the PD-L1/vinculin loading control ratio. Methods are the same as the previous replicate, using the indicated doses.
as §1
PD-L1-APC (BD Biosciences) and a matched isotype control were used to visualize PD-L1 cell surface expression by flow cytometry (1:250 dilution). As shown by western blot, the knockdown of WWP1 yielded increased PD-L1 protein levels, including an increase in the glycosylated band.
Total RNA was isolated using an RNeasy kit from Qiagen.

SMILES | IC50 (DU-145 cells) [µM] | AKT phosphorylation (relative to total AKT or vinculin loading control) [1] | S6 phosphorylation (relative to total S6 or vinculin loading control) [1] | PD-L1 glycosylation (glycosylated/non-glycosylated PD-L1 ratio) (PD-L1) | PD-L1 levels (relative to vinculin loading control) (PD-L1)
C#Cc1ccc2c(C=O)cn(-c3ccccc3)c2c1 [Compound 1, 6-ethynyl-1-phenyl-1H-indole-3-carbaldehyde] | 13.5 | reduces | reduces | increases | increases
C#CCN(CCO)C(=O)c1ccc2c(Cc3c[nH]c4ccccc34)c[nH]c2c1 [Compound 7, 3-((1H-indol-3-yl)methyl)-N-(2-hydroxyethyl)-N-(prop-2-yn-1-yl)-1H-indole-6-carboxamide] | 5.01 | reduced | reduces |  | reduces
C#CCNC(=O)c1ccc2c(Cc3c[nH]c4ccccc34)c[nH]c2c1 [Compound 6, 3-((1H-indol-3-yl)methyl)-N-(prop-2-yn-1-yl)-1H-indole-6-carboxamide] | 8.08 | reduces | reduces |  | reduced
